Laboratory results: article PMC5762315, “Inhibition of polo-like kinase 4 (PLK4): a new therapeutic option for rhabdoid tumors and pediatric medulloblastoma” (Oncotarget, 2017)
Values joined by “and” are separate entries in the source; they are usually repeats but may differ in a detail not shown here. Equal values may be shown once.

Experiments:
Assay in all cases: biochemical
Type in all cases: biochemical
various kinases [1] = target: various kinases (Homo sapiens, UniProt P11309); conditions: PIM1
various kinases [2] = target: various kinases (Homo sapiens, UniProt P00519, F317I); conditions: ABL1 F317I
various kinases [3] = target: various kinases (Homo sapiens, UniProt P07949, S891A); conditions: kinase RET S891A; ZLYTE
various kinases [4] = target: various kinases (Homo sapiens, UniProt O60674)
various kinases [5] = target: various kinases (Homo sapiens, UniProt P17252); conditions: kinase PRKCA (PKC alpha); ZLYTE
various kinases [6] = target: various kinases (Homo sapiens, UniProt Q14680); conditions: MELK
various kinases [7] = target: various kinases (Homo sapiens, UniProt P54753); conditions: EPHB3
various kinases [8] = target: various kinases (Homo sapiens, UniProt P41279); conditions: MAP3K8 (COT)
various kinases [9] = target: T1, various kinases (Homo sapiens, UniProt Q9BXA7); conditions: kinase STK22D (TSSK1); ZLYTE
T1 sequence (Q9BXA7 1-367): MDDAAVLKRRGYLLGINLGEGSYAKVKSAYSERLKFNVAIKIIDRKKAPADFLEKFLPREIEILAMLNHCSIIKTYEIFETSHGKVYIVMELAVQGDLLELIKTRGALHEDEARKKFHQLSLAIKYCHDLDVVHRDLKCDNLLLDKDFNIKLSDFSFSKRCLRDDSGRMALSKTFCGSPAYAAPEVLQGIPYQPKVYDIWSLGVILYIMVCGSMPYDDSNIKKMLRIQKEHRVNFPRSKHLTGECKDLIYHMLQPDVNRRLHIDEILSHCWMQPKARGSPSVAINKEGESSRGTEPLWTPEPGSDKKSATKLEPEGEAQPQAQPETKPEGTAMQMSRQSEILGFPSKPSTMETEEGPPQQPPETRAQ

various kinases [10] = target: various kinases (Homo sapiens, UniProt P00519, F317L); conditions: ABL1 F317L
various kinases [11] = target: T2, various kinases (Homo sapiens, UniProt O94806); conditions: kinase PRKCN (PKD3); ZLYTE
T2 sequence (O94806 1-890): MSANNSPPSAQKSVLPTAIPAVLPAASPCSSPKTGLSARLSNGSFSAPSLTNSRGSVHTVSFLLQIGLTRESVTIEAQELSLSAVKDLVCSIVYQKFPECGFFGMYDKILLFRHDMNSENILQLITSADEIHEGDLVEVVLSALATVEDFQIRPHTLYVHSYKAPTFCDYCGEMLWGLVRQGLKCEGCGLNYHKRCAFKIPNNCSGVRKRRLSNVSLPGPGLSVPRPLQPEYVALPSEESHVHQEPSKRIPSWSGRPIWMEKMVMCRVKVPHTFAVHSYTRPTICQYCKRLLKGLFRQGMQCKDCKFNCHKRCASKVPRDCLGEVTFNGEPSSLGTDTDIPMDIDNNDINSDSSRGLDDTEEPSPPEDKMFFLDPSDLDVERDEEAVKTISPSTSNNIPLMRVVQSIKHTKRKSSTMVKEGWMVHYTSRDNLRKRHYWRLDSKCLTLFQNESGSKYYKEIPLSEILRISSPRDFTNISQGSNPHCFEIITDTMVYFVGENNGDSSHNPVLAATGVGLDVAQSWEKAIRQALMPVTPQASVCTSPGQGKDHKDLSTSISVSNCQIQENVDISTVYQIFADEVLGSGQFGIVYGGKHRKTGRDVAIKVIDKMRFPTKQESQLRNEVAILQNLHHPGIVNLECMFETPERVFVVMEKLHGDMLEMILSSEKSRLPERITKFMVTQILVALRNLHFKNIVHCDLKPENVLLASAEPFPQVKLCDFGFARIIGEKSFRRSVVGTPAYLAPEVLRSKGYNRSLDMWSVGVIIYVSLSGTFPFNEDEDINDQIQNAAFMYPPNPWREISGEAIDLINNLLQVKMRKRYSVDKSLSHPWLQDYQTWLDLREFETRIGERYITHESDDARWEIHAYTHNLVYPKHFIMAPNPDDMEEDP

various kinases [12] = target: various kinases (Homo sapiens, UniProt P21802, N549H); conditions: FGFR2 N549H
various kinases [13] = target: various kinases (Homo sapiens, UniProt P42345); conditions: FRAP1 (mTOR)
various kinases [14] = target: various kinases (Homo sapiens, UniProt Q9Y243); conditions: AKT3 (PKB gamma)
various kinases [15] = target: various kinases (Homo sapiens, UniProt P35916); conditions: FLT4 (VEGFR3)
various kinases [16] = target: various kinases (Homo sapiens, UniProt P49761); conditions: CLK3
various kinases [17] = target: various kinases (Homo sapiens, UniProt P35968); conditions: KDR (VEGFR2)
various kinases [18] = target: various kinases (Homo sapiens, UniProt Q8N568); conditions: DCAMKL2 (DCK2)
various kinases [19] = target: various kinases (Homo sapiens, UniProt P54762); conditions: EPHB1
various kinases [20] = target: various kinases (Homo sapiens, UniProt P00533); conditions: EGFR (ErbB1)
various kinases [21] = target: various kinases (Homo sapiens, UniProt P68400); conditions: CSNK2A1 (CK2 alpha 1)
various kinases [22] = target: various kinases (Homo sapiens, UniProt P06493); conditions: CDK1/cyclin B
Throughout, for % Inhibition Average: test concentration or dose not given here.
Throughout, for % Inhibition Duplicate #1: test concentration or dose not given here.
Throughout, for % Inhibition Duplicate #2: test concentration or dose not given here.

various kinases (Homo sapiens, UniProt P07949, S891A), sequence (P07949 29-1114 S891A): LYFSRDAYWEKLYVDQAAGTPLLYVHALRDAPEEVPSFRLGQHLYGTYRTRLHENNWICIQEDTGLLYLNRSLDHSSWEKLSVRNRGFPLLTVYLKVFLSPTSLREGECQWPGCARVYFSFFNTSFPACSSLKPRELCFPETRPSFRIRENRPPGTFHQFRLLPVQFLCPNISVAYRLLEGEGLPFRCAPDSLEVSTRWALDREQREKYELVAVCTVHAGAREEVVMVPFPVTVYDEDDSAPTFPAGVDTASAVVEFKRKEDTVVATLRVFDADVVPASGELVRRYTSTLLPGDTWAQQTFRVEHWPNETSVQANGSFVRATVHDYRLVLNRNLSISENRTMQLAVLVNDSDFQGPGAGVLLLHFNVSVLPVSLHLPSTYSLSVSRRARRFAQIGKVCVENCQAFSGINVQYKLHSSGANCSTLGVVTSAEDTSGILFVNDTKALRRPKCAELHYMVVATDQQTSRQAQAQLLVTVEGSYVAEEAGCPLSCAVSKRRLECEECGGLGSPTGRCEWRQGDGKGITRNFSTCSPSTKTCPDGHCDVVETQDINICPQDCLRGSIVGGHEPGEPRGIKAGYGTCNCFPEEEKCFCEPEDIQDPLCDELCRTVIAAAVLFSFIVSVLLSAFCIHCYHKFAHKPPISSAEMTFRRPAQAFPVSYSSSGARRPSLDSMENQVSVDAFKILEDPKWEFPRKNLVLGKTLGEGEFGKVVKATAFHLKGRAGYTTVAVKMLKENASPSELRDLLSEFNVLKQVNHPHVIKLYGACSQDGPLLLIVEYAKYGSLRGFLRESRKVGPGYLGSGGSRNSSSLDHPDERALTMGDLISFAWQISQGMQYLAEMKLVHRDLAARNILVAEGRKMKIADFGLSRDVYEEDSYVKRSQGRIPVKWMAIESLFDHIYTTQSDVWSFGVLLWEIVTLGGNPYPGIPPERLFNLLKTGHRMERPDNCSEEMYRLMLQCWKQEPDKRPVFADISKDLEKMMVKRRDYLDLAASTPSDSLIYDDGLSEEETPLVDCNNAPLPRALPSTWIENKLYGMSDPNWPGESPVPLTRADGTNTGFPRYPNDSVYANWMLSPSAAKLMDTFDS
various kinases (Homo sapiens, UniProt P00519, F317I), sequence (P00519 whole entry F317I): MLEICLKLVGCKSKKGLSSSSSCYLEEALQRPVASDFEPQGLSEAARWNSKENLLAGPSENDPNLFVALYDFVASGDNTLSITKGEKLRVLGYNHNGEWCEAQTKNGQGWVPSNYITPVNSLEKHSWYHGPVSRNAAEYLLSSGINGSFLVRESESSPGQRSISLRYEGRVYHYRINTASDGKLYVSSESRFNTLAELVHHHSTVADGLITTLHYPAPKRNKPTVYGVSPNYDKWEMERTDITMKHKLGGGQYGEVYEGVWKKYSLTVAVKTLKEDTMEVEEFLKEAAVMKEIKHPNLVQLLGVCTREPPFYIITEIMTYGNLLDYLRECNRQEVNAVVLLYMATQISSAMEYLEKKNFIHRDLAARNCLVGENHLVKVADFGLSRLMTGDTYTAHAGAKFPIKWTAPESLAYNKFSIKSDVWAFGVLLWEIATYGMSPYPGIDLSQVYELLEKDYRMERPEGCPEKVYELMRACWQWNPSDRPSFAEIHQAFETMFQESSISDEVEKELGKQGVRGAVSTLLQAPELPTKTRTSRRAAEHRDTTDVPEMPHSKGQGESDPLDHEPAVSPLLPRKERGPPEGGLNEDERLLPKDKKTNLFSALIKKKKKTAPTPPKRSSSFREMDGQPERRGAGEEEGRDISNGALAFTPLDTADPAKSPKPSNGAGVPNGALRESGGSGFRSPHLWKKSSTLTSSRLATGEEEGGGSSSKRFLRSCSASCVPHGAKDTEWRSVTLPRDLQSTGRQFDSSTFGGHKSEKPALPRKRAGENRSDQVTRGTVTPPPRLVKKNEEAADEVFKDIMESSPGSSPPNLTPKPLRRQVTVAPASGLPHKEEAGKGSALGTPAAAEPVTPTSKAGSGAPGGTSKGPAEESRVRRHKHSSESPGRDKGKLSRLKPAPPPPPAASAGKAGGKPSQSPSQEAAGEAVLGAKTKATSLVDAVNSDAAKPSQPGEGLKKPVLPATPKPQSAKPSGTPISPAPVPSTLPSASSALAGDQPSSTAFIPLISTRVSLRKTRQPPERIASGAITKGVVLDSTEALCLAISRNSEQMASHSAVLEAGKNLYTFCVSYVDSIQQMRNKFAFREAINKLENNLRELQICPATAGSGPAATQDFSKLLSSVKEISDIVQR
various kinases (Homo sapiens, UniProt P54762), sequence (P54762 18-984): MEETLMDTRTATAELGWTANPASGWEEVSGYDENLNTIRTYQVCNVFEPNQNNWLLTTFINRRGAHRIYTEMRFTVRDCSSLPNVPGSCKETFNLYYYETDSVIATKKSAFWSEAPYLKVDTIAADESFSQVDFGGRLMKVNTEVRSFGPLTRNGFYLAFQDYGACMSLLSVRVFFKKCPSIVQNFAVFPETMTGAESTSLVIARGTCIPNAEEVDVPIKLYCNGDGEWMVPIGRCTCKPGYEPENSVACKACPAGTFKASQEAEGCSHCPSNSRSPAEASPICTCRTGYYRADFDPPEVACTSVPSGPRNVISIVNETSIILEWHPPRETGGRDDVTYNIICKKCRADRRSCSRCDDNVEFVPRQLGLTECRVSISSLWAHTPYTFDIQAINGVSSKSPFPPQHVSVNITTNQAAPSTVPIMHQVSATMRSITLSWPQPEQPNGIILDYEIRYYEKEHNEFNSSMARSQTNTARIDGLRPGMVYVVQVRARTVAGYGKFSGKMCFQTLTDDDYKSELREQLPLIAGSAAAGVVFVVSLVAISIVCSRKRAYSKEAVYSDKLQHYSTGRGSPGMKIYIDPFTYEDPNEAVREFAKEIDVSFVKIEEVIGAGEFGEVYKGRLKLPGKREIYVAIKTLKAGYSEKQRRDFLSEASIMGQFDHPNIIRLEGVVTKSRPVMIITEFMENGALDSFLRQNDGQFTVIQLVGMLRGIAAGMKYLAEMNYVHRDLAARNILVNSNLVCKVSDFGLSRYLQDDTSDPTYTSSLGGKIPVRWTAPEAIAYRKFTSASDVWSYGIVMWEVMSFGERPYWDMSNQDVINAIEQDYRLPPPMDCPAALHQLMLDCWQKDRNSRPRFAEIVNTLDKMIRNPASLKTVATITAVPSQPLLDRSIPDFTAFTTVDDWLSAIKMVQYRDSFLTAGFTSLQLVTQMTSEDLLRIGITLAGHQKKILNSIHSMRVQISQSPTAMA
various kinases (Homo sapiens, UniProt Q9Y243), sequence (Q9Y243 whole entry): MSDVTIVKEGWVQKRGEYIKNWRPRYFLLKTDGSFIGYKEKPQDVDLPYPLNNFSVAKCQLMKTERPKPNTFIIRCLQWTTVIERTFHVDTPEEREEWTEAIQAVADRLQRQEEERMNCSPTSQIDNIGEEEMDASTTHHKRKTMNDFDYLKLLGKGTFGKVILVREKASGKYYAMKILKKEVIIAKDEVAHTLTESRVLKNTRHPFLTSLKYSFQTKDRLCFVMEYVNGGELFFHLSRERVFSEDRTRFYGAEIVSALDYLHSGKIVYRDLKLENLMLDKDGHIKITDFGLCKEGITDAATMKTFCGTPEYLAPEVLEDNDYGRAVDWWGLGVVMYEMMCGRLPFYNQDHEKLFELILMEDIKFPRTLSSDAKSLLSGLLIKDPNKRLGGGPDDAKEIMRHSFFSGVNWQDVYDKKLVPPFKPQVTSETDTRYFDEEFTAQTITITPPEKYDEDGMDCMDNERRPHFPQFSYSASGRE
various kinases (Homo sapiens, UniProt P00519, F317L), sequence (P00519 whole entry F317L): as the sequence (P00519 whole entry F317I) above, with I317L counted along it
various kinases (Homo sapiens, UniProt Q14680), sequence (Q14680 whole entry): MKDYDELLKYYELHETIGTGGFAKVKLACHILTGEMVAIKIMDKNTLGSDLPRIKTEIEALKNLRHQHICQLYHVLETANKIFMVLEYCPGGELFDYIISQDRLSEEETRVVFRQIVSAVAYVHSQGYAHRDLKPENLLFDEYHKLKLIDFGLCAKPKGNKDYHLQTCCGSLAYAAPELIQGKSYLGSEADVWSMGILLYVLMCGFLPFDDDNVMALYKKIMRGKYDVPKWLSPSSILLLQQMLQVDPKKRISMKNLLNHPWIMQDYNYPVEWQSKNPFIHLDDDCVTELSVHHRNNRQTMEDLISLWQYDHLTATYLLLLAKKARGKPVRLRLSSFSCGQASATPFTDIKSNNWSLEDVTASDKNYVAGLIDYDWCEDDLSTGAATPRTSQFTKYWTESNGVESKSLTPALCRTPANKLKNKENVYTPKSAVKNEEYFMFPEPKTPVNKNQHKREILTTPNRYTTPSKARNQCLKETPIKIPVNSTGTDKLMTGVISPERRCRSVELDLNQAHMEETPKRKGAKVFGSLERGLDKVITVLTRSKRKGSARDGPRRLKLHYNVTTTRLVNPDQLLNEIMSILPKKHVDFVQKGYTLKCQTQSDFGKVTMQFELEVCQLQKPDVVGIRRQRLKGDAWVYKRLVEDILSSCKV

COc1ccc2c(c1)[C@]1(C[C@H]1c1ccc3c(/C=C/c4ccc(CN5C[C@@H](C)O[C@@H](C)C5)cc4)n[nH]c3c1)C(=O)N2 [CFI-400945]
% Inhibition (various kinases [1]): 2% and 3% | % Inhibition (various kinases [2]): 4% and 5% | % Inhibition Average (various kinases [3]): 55% | % Inhibition Duplicate #1 (various kinases [3]): 59% | % Inhibition Duplicate #2 (various kinases [3]): 52% | % Inhibition (various kinases [4]; JAK2): 9% | % Inhibition (various kinases [4]; JAK2 JH1 JH2): 7% | % Inhibition Average (various kinases [5]): 5% | % Inhibition Duplicate #1 (various kinases [5]): -1% | % Inhibition Duplicate #2 (various kinases [5]): 12% | % Inhibition (various kinases [6]): 9% and 18% | % Inhibition (various kinases [7]): 3% and 2% | % Inhibition (various kinases [8]): 7% | % Inhibition Average (various kinases [9]): 6% | % Inhibition Duplicate #1 (various kinases [9]): 7% | % Inhibition Duplicate #2 (various kinases [9]): 5% | % Inhibition (various kinases [10]): 13% and 16% | % Inhibition Average (various kinases [11]): 4% | % Inhibition Duplicate #1 (various kinases [11]): 3% | % Inhibition Duplicate #2 (various kinases [11]): 4% | % Inhibition (various kinases [12]): 12% and 18% | % Inhibition (various kinases [13]): 2% and 5% | % Inhibition (various kinases [14]): 3% and 4% | % Inhibition (various kinases [15]): 6% and 8% | % Inhibition (various kinases [16]): 2% and 0% | % Inhibition (various kinases [17]): 16% and 15% | % Inhibition (various kinases [18]): -7% and -1% | % Inhibition (various kinases [19]): 11% and 16% | % Inhibition (various kinases [20]): 1% and 7% | % Inhibition (various kinases [21]): 9% and 4% | % Inhibition (various kinases [22]): 16% and 12%
